According to patent publication US12398180B2, “Treatment of non-alcoholic fatty liver disease” (NURITAS LIMITED, priority 2019, dated 2025):
Where two headings read alike, the source gives them in different places. Square brackets hold non-standard residues; d marks the D form. Peptide text beside a SMILES is read from it.

Assays:
[1] = system: primary human hepatic stellate cells; test: Anti-fibrotic effect in TGF-β stimulated primary hepatic stellate cells (ACTA2 staining); type: cell-based; settings: 10 μM
Experimental: The procedure was performed as described above for the CY5 labelled peptide imaging in HSkMCs with a few minor modifications. Primary hepatic stellate cells were investigated as they are considered to be the most relevant profibrogenic cells operating in acute and chronic liver diseases. The stellate cells were seeded directly onto the glass coverslips at a density of 5,000 cells/mL. After starvation, the cells were treated with pep_1E99R5 (5 ng/mL) or Elafibranor (10 μM) for 6 hours. The cells were washed and subsequently treated with 5 ng/ml […] (Bio Techne, Minneapolis, MN, United States) for 24 hours to induce fibrosis. The cells were fixed and stained with ACTA2 antibody (Assay Genie, Dublin, Ireland), a marker of fibroblast activation.
The confocal images were analysed with custom Python scripts using the scikit-image library version 0.15. The cells and nuclei were segmented using a simple threshold computed using the mean value of the image. Using the Nuclei as a seed we separated the cells in the cell mask using watershed segmentation. Cell size was then quantified in pixels. [Stéfan van der Walt, Johannes L. Schönberger, Juan Nunez-Iglesias, Frangois Boulogne, Joshua D. Warner, Neil Yager, Emmanuelle Gouillart, Tony Yu and the scikit-image contributors. scikit-image: Image processing in Python. PeerJ 2:e453 (2014)

[2] = system: lipoproteins; settings: binding to lipoproteins; cited from earlier work
[3] = in humans; cited from earlier work
[4] = Stability in-vivo
[5] = system: human skeletal muscle cells; test: Glucose uptake in skeletal muscle cells; type: cell-based; settings: compared with control (FIG. 5)
[6] = PK profile (half-life); settings: in vivo
[7] = system: C57BL/6 mice; test: Acetaminophen (APAP)-induced acute liver injury mouse model, ALT/AST; type: in vivo; settings: inferred from ALT/AST time course
Experimental: Animals for Acetaminophen (APAP)-induced Acute Liver Injury Mouse Model: All animal procedures were performed by Melior Discovery (Exton, PA, USA) in accordance with Institutional Animal Care and Use (IACUC) guidelines in an AAALAC-accredited facility. […] Studies were performed with 8-week-old male C57BL/6 mice obtained from the Charles River Laboratory and were randomly assigned to the treatment groups based on body mass. Mice were acclimated for 7 days and housed 4 per cage on a 12-hour light/dark cycle with ad libitum access to standard rodent chow and water.

[8] = system: Human primary cells; test: Cytotoxicity in primary human cell-based systems (SRB / alamarBlue); settings: at the concentration tested
Experimental: Systems are derived from either single cell types or co-culture systems. Adherent cell types are cultured in 96 or 384-well plates until confluence, followed by the addition of PBMC (SAg and LPS systems). The BT system consists of CD19+ B cells co-cultured with PBMC and stimulated with a BCR activator and low levels of TCR stimulation. Test agents prepared in either DMSO (small molecules; final concentration s 0.1%) or PBS (biologics) are added at the indicated concentrations 1-hr before stimulation, and remain in culture for 24 h or as otherwise indicated (48 h, MyoF system; 72 h, BT system (soluble readouts); 168 h, BT system (secreted IgG)). […] Soluble factors from supernatants are quantified using either HTRF® detection, bead-based multiplex immunoassay or capture ELISA. Overt adverse effects of test agents on cell proliferation and viability (cytotoxicity) are detected by sulforhodamine B (SRB) staining, for adherent cells, and alamarBlue® reduction for cells in suspension. For proliferation assays, individual cell types are cultured at subconfluence and measured at time points optimized for each system (48 h: 3C and CASM3C systems; 72 h: BT and HDF3CGF systems; 96 h: SAg system). […]

In the case of `CSc1ccc(C(=O)/C=C/c2cc(C)c(OC(C)(C)C(=O)O)c(C)c2)cc1` [Elafibranor], the “anti-fibrotic effect in stimulated stellate cells” value [1] is reported as “anti-fibrotic effects”.
In the case of `C[C@@H](O)[C@@H]1NC(=O)[C@H](CCCCN)NC(=O)[C@@H](Cc2c[nH]c3ccccc23)NC(=O)[C@H](Cc2ccccc2)NC(=O)[C@@H](NC(=O)[C@H](N)Cc2ccccc2)CSSC[C@@H](C(=O)N[C@H](CO)[C@@H](C)O)NC1=O` [octreotide], the fraction unbound [2] is given as 0.65 and the half-life [3] is given as “about 100 min”.
In the case of “1(clac)wKE(Me)EC1GK(Me)PLVk-OH (Ac-[dW]KEXCGKXLV[dK]-OH; thioether (positions not given here); not fully specified (residues 4, 8, bridges); printed as 1(clac)wKE(Me)EC1GK(Me)PLVk-OH) [SEQUENCE ID NO: 3]”, the stability in-vivo [4] is reported as “enhanced stability” and the “glucose uptake in human skeletal muscle cells in-vitro” value [5] is reported as “significantly increases”.
Work on `CC(C)C[C@H](NC(=O)[C@@H]1CCCN1C(=O)[C@H](CCCCN)NC(=O)CNC(=O)[C@@H](C)NC(=O)[C@H](CCC(=O)O)NC(=O)[C@H](CC(=O)O)NC(=O)[C@@H](CCCCN)NC(=O)[C@H](N)Cc1c[nH]c2ccccc12)C(=O)N[C@@H](C(=O)N[C@H](CCCCN)C(=O)O)C(C)C` [SEQ ID 2, {d}W{d}KDE{d}AGKPL{d}V{d}K] (H-[dW][dK]DE[dA]GKPL[dV][dK]-OH; N-terminus and C-terminus assumed) yielded a half-life [6] of 1.55 h.
With `CC(C)C[C@H](NC(=O)[C@@H]1CCCN1C(=O)[C@H](CCCCN)NC(=O)CNC(=O)[C@H](C)NC(=O)[C@H](CCC(=O)O)NC(=O)[C@H](CC(=O)O)NC(=O)[C@H](CCCCN)NC(=O)[C@@H](N)Cc1c[nH]c2ccccc12)C(=O)N[C@H](C(=O)N[C@@H](CCCCN)C(=O)O)C(C)C` [pep_260] (H-WKDEAGKPLVK-OH; N-terminus and C-terminus assumed) the “duration of potent functionality in mice” value [7] was 2 h and the cytotoxicity [8] was “not cytotoxic”.
For `NC(=O)CC[C@@H]1NC(=O)[C@H](Cc2ccccc2)NC(=O)[C@H](Cc2ccc(O)cc2)NC(=O)[C@@H](N)CSSC[C@@H](C(=O)N2CCC[C@H]2C(=O)N[C@@H](CCCN=C(N)N)C(=O)NCC(N)=O)NC(=O)[C@H](CC(N)=O)NC1=O` [vasopressin], the half-life [3] is listed as 0.167 to 0.583 h.
